Source: patent publication US11753408B2, “Compounds and method for blocking transmission of malarial parasite” (The United States of America, as represented by the …, priority 2016, dated 2023)
Read-outs that look alike come from different tables or passages of the source.

What was measured:
[1] = tested on: Stage III-V gametocytes (blood stage P. falciparum parasites); test: In vitro drug activity on gametocytes (AlamarBlue viability assay); assay type: cell-based, Plasmodium falciparum; conditions: for EC50: read-out: Gametocyte EC50
Method: Cell culture. Asexual parasites of P. falciparum strain 3D7 were cultured as described previously [Trager W, et al., Journal of Parasitology 2005, 91: 484-486], Stage III-V gametocytes were selected and enriched with 3-day treatment with 50 mM N-acetylglucosamine (NAG) and the following Percoll density gradient centrifugation after gametocyte production [Tanaka T Q, et al., Molecular and Biochemical Parasitology, 2011, 111: 160-163], Gametocytes of HB3 and Dd2 strains were produced and then set up for assay in a similar process. HepG2 cells (ATCC, cat. no. 77400) were cultured in 175-cm^2 tissue culture flasks with 30 ml growth medium at 37° C. in a 5% CO2 humidified atmosphere. Growth medium was made with Dulbecco's Modified Eagle Medium with 10% fetal bovine serum (FBS). Growth medium was replaced every other day and cells were passed at 75% confluence.
Compound screening experiments were performed as previously described [Tanaka T Q et al., Molecular and Biochemical Parasitology, 2013, 3188: 20-25], Briefly, 2.5 μl/well incomplete medium was dispensed into each well of 1,536-well plates using the Multidrop Combi followed by 23 nl compound transferring using the NX-TR Pintool (WAKO Scientific Solutions, San Diego, Calif.). 2.5 μl/well of gametocytes was dispensed with a seeding density of 20,000 cells/well using the Multidrop Combi. The assay plates were incubated for 72 h at 37° C. with 5% CO2. After addition of 5 μl/well of 2× AlamarBlue dye (Life Technologies, cat. no. DALI 100), the plates were incubated for 24 h at 37° C. with 5% CO2 and were read in a fluorescence detection mode (Ex=525 nm, Em=598 nm) on a ViewLux plate reader (PerkinElmer).
Stage III-V gametocytes (blood stage P. falciparum parasites) were enriched with treatment with 50 mM N-acetylglucosamine (NAG) and Percoll density gradient centrifugation as described previously^1. Briefly, 2.5 μl/well incomplete medium was dispensed into each well of 1,536-well plates using the Multidrop Combi followed by 23 nl compound transfer using the NX-TR Pintool (WAKO Scientific Solutions, San Diego, Calif.). Then, 2.5 μl/well of gametocytes was dispensed with a seeding density of 20,000 cells/well using the Multidrop Combi. The assay plates were incubated for 72 h at 37° C. with 5% CO2. After addition of 5 μl/well of 2× AlamarBlue dye (Life Technologies, cat. no. DALI 100), the plates were incubated for 24 h at 37° C. with 5% CO2 and then were read in a fluorescence detection mode (Ex=525 nm, Em=598 nm) on a ViewLux plate reader (PerkinElmer).

[2] = tested on: Asexual parasites of P. falciparum strain 3D7; test: In vitro drug activity on asexual parasites (SYBR Green assay); assay type: cell-based, Plasmodium falciparum
Method in brief: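 3D7 parasites at 0.5% parasitemia and 2% hematocrit were exposed to drugs (DMSO ≤0.5%) for 72 h under standard culture conditions, in duplicate. After freeze-thaw lysis, SYBR Green I lysis buffer was added for 30 min at room temperature, and fluorescence was read at 490/520 nm.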

Solubility at pH 7.4 = assay type: physicochemical
[3] = Microsomal stability (rat); assay type: in vitro ADME; conditions: rat microsomes
mTOR = mTOR (Homo sapiens, UniProt P42345); test: mTOR activity (no method described); assay type: biochemical
[4] = P. falciparum stage III-V gametocytes, 72 h incubation, AlamarBlue
[5] = P. falciparum 3D7 asexual parasites, 72 h, SYBR Green

| Compound | EC50 [2, 5] [nM] | Sol @ pH 7.4 (ug/mL) (Solubility at pH 7.4) | Microsomal Stability (rat) T1/2 [3] [min] | EC50 [2] [nM] | mTOR (mTOR) [µM] | Sol @ pH 7.4 (Solubility at pH 7.4) [ug/mL] | EC50 [1, 4] [nM] | EC50 [1] [nM] | Gametocyte EC50 [1] |
| --- | --- | --- | --- | --- | --- | --- | --- | --- | --- |
| N#Cc1cccc(-n2c(=O)ccc3cnc4ccc(-c5ccc(Cl)cc5)cc4c32)c1 [Compound 1] | 27.9 | – | – | – | – | – | 88.8 | – | – |
| N#Cc1cc(-n2c(=O)ccc3cnc4ccc(-c5ccc(Cl)cc5)cc4c32)ccc1N1CCOCC1 [Compound 6] | – | 0.02 | – | – | – | – | 102 | – | – |
| Cc1c(C#N)cccc1-n1c(=O)ccc2cnc3ccc(-c4ccc(CN(C)C)cc4)cc3c21 [Compound 10] | 72.2 | >66 | 18 | – | – | – | 469 | – | – |
| COc1ccc(C#N)cc1-n1c(=O)ccc2cnc3ccc(-c4ccc(CN(C)C)cc4)cc3c21 [Compound 14] | 113 | – | – | – | – | – | 425 | – | – |
| N#Cc1cc(-n2c(=O)ccc3cnc4ccc(-c5ccc(F)cc5)cc4c32)ccc1N1CCNCC1 [Compound 15] | 730 | – | – | – | – | – | 521 | – | – |
| N#Cc1cc(-n2c(=O)ccc3cnc4ccc(-c5ccc(Cl)cc5)cc4c32)ccc1N1CCNCC1 [Compound 16] | 23.7 | – | – | – | – | – | 69.4 | – | – |
| CS(=O)(=O)c1ccc(-n2c(=O)ccc3cnc4ccc(-c5ccc(F)cc5)cc4c32)cc1 [Compound 29] | 19.8 | <1.0 | >30.0 | – | – | – | 88.5 | – | – |
| CCNS(=O)(=O)c1ccc(-n2c(=O)ccc3cnc4ccc(-c5ccc(Cl)cc5)cc4c32)cc1 [Compound 41] | 23.1 | <1.0 | 6.3 | – | – | – | 89.4 | – | – |
| CN(C)Cc1ccc(-c2ccc3ncc4ccc(=O)n(-c5ccc(S(C)(=O)=O)c(Cl)c5)c4c3c2)cc1 [Compound 63] | 147 | – | – | – | – | – | 342 | – | – |
| Nc1ccc(-c2ccc3ncc4ccc(=O)n(-c5ccc(S(N)(=O)=O)cc5)c4c3c2)cn1 [Compound 78] | 6.12 | <1.0 | >30.0 | – | – | – | 11.6 | – | – |
| Nc1ccc(-c2ccc3ncc4ccc(=O)n(-c5ccc(S(=O)(=O)NC6CC6)cc5)c4c3c2)cn1 [Compound 82] | 150 | – | – | – | – | – | 167 | – | – |
| O=C(c1ccc(-n2c(=O)ccc3cnc4ccc(-c5ccccc5)cc4c32)cc1)N1CCOCC1 [Compound 125] | – | – | – | 8.08 | 0.5061 | – | – | 39.8 | – |
| O=C(c1ccc(-n2c(=O)ccc3cnc4ccc(-c5ccc(Cl)cc5)cc4c32)c(Cl)c1)N1CCOCC1 [Compound 159] | – | – | – | 91.6 | 3.523 | – | – | 320 | – |
| COC(=O)CN1Cc2cc(-n3c(=O)ccc4cnc5ccc(-c6ccc(Cl)cc6)cc5c43)ccc2C1=O [Compound 345] | – | – | <1.0 | – | – | – | 3830 | – | – |
| O=C1Cc2cc(-n3c(=O)ccc4cnc5ccc(-c6ccc(Cl)cc6)cc5c43)ccc2N1 [Compound 346] | 18.6 | – | – | – | – | – | 48.4 | – | – |
| O=C1c2ccc(-n3c(=O)ccc4cnc5ccc(-c6ccc(Cl)cc6)cc5c43)cc2CN1C1CC1 [Compound 353] | 589 | 0 | >30.0 | – | – | – | 2510 | – | – |
| CN(C)Cc1ccc(-c2ccc3ncc4ccc(=O)n(-c5ccc6c(c5)CN(CC(=O)O)C6=O)c4c3c2)cc1 [Compound 355] | 2020 | >77.0 | >30.0 | – | – | – | 28800 | – | – |
| O=C1NCCc2cc(-n3c(=O)ccc4cnc5ccc(-c6ccc(Cl)cc6)cc5c43)ccc21 [Compound 367] | 29 | 0 | 12.8 | – | – | – | 105 | – | – |

The next lines start with results.

| EC50 [2, 5] [nM] | Sol @ pH 7.4 (ug/mL) (Solubility at pH 7.4) | Microsomal Stability (rat) T1/2 [3] [min] | EC50 [2] [nM] | mTOR (mTOR) [µM] | Sol @ pH 7.4 (Solubility at pH 7.4) [ug/mL] | Compound | EC50 [1, 4] [nM] | EC50 [1] [nM] | Gametocyte EC50 [1] |
| --- | --- | --- | --- | --- | --- | --- | --- | --- | --- |
| 13.1 | >66.00 | – | – | – | – | Cc1ccc(C#N)cc1-n1c(=O)ccc2cnc3ccc(-c4ccc(CN(C)C)cc4)cc3c21 [Compound 7] | 25.1 | – | – |
| 55.8 | – | – | – | – | – | COc1ccc(C#N)cc1-n1c(=O)ccc2cnc3ccc(-c4ccc(Cl)cc4)cc3c21 [Compound 12] | 126 | – | – |
| 80.4 | 0 | – | – | – | – | COc1ccc(C#N)cc1-n1c(=O)ccc2cnc3ccc(-c4ccc(F)cc4)cc3c21 [Compound 13] | 135 | – | – |
| 34.6 | <1.0 | >30.0 | – | – | – | N#Cc1ccc(-n2c(=O)ccc3cnc4ccc(-c5ccc(N)nc5)cc4c32)cc1 [Compound 22] | 115 | – | – |
| 37.8 | 1.2 | >30.0 | – | – | – | CS(=O)(=O)c1ccc(-n2c(=O)ccc3cnc4ccc(-c5ccc(Cl)c(O)c5)cc4c32)cc1 [Compound 26] | 178 | – | – |
| 414 | <1.0 | 1.7 | – | – | – | CCN(CC)S(=O)(=O)c1ccc(-n2c(=O)ccc3cnc4ccc(-c5ccc(Cl)cc5)cc4c32)cc1 [Compound 39] | 426 | – | – |
| 62.5 | <1.0 | 8.3 | – | – | – | O=c1ccc2cnc3ccc(-c4ccc(Cl)cc4)cc3c2n1-c1ccc(S(=O)(=O)NC2CC2)cc1 [Compound 46] | 260 | – | – |
| 146 | >69.00 | 51.7 | – | – | – | CN(C)Cc1ccc(-c2ccc3ncc4ccc(=O)n(-c5ccc([S+](C)[O-])cc5)c4c3c2)cc1 (stereo not drawn) [Compound 54] | 393 | – | – |
| 558 | >84.00 | >30.00 | – | – | – | CN(C)Cc1ccc(-c2ccc3ncc4ccc(=O)n(-c5ccc(S(C)(=O)=O)c(N6CCOCC6)c5)c4c3c2)cc1 [Compound 62] | 1320 | – | – |
| – | – | – | 445 | 5.312 | – | NC1(c2ccc(-c3ccc4ncc5ccc(=O)n(-c6ccc(C(=O)N7CCOCC7)cc6)c5c4c3)cc2)CC1 [Compound 178] | – | 918 | – |
| 69.1 | <1.0 | 12.4 | – | – | – | CN1Cc2cc(-n3c(=O)ccc4cnc5ccc(-c6ccc(Cl)cc6)cc5c43)ccc2C1=O [Compound 341] | 83 | – | – |
| 546 | >68.0 | – | – | – | – | CN(C)Cc1ccc(-c2ccc3ncc4ccc(=O)n(-c5ccc6c(c5)CC(=O)N6)c4c3c2)cc1 [Compound 350] | 1000 | – | – |
| 156 | – | – | – | – | – | CCN1Cc2cc(-n3c(=O)ccc4cnc5ccc(-c6ccc(Cl)cc6)cc5c43)ccc2C1=O [Compound 351] | 2160 | – | – |
| 25 | <0.10 | >30.00 | – | – | – | O=C1CCc2cc(-n3c(=O)ccc4cnc5ccc(-c6ccc(Cl)cc6)cc5c43)ccc2N1 [Compound 356] | 65.5 | – | – |
| 23.4 | 0.06 | 14.9 | – | – | – | CN1C(=O)CCc2cc(-n3c(=O)ccc4cnc5ccc(-c6ccc(Cl)cc6)cc5c43)ccc21 [Compound 359] | 130 | – | – |
| 115 | 0 | – | – | – | – | O=C1Cc2ccc(-n3c(=O)ccc4cnc5ccc(-c6ccc(Cl)cc6)cc5c43)cc2N1 [Compound 376] | 199 | – | – |
| – | 0 | – | – | – | – | NCCc1ccc(-c2ccc3ncc4ccc(=O)n(-c5ccc6c(c5)CNC6=O)c4c3c2)cc1 [Compound 377] | 384 | – | – |
| 12.3 | 10 | >30.00 | – | – | – | Nc1ccc(-c2ccc3ncc4ccc(=O)n(-c5ccc6c(c5)CCC(=O)N6)c4c3c2)cn1 [Compound 391] | 56.3 | – | – |
| – | – | 11.3 | 45000 | – | <1.0 | N#Cc1ccc(-n2c(=O)[nH]c3cnc4ccc(-c5ccc(Cl)cc5)cc4c32)cc1 [Compound 434] | – | – | Inactive |
